Data taken from publication PMC11357054, “Azobenzenesulfonamide Carbonic Anhydrase Inhibitors as New Weapons to Fight Helicobacter pylori: Synthesis, Bioactivity Evaluation, In Vivo Toxicity, and Computational Studies” (Pharmaceuticals, 2024).
In brackets after ≈: the same amount, converted by molar mass. Read-outs that look alike come from different tables or passages of the source.

Experiments:
hCA I [1] = molecular target: T1, hCA I (Homo sapiens, UniProt P00915); test: stopped-flow CO2 hydration; assay type: biochemical; conditions: read-out: KI (nM) * / Human Isoforms / hCA I
T1 construct: gene CA1; purchased from Merck
From the text: stopped-flow CO2 hydration on hCA I

hCA II = molecular target: T2, hCA II (Homo sapiens, UniProt P00918); test: stopped-flow CO2 hydration; assay type: biochemical; conditions: read-out: KI (nM) * / Human Isoforms / hCA II
T2 construct: gene CA2; purchased from Merck
From the text: stopped-flow CO2 hydration on hCA II

hCA IX [2] = molecular target: T3, hCA IX (Homo sapiens, UniProt Q16790); test: stopped-flow CO2 hydration; assay type: biochemical; conditions: read-out: KI (nM) * / Human Isoforms / hCA IX
T3 construct: gene CA9
From the text: stopped-flow CO2 hydration on hCA IX

PgiγCA = molecular target: T4, PgiγCA; test: stopped-flow CO2 hydration; assay type: biochemical, Porphyromonas gingivalis; conditions: pH […] HEPES, […] Na2SO4, […] min preincubation, r.t.; read-out: KI (nM) * / Bacterial Isoforms / Pgi γCA
T4 construct: gene PgiCA; recombinant, obtained in-house

HpαCA = molecular target: T5, HpαCA (Helicobacter pylori, UniProt B5Z8I0); test: stopped-flow CO2 hydration; assay type: biochemical
T5 construct: gene HPG27_1129; recombinant, obtained in-house; PDB 4XFW is given for docking only
T5 sequence (B5Z8I0 22-247): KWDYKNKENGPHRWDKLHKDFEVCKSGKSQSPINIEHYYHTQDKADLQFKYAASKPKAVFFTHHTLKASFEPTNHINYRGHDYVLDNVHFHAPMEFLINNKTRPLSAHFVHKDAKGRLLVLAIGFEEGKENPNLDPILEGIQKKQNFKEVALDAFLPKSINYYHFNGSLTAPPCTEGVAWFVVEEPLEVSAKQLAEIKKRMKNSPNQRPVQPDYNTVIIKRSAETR

EcoβCA [3] = molecular target: T6, EcoβCA (Escherichia coli, UniProt P61517); test: stopped-flow CO2 hydration; assay type: biochemical; conditions: read-out: KI (nM) * / Bacterial Isoforms / Eco βCA
T6 construct: gene can; recombinant, obtained in-house

hCA XII [4] = molecular target: T7, hCA XII (Homo sapiens, UniProt O43570); test: stopped-flow CO2 hydration; assay type: biochemical; conditions: read-out: KI (nM) * / Human Isoforms / hCA XII
T7 construct: gene CA12
From the text: stopped-flow CO2 hydration on hCA XII

HpβCA = molecular target: T8, HpβCA (Helicobacter pylori, UniProt Q9ZN54); test: stopped-flow CO2 hydration; assay type: biochemical; conditions: read-out: KI (nM) * / Bacterial Isoforms / Hp βCA
T8 construct: gene cynT; recombinant, obtained in-house
T8 sequence (Q9ZN54 1-221): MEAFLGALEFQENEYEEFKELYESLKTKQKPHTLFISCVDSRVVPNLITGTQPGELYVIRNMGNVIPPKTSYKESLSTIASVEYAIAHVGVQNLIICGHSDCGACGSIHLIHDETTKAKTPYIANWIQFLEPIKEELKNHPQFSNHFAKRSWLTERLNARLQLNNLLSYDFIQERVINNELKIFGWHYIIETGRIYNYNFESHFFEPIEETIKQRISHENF

PsCA3 [5] = molecular target: T9, PsCA3 (Pseudomonas aeruginosa, UniProt Q9HVB9); test: stopped-flow CO2 hydration; assay type: biochemical; conditions: read-out: KI (nM) * / Bacterial Isoforms / Ps CA3
T9 construct: gene PA4676; recombinant, obtained in-house
T9 sequence (Q9HVB9 1-215): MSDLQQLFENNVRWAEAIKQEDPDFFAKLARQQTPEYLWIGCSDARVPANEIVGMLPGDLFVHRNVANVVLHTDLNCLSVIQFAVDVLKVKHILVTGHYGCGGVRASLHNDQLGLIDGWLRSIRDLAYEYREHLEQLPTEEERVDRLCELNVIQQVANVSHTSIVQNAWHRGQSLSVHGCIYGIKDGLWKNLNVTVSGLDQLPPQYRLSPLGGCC

PgiβCA = molecular target: T10, PgiβCA; test: stopped-flow CO2 hydration; assay type: biochemical, Porphyromonas gingivalis; conditions: pH […] HEPES, […] Na2SO4, […] min preincubation, r.t.; read-out: KI (nM) * / Bacterial Isoforms / Pgi βCA
T10 construct: gene PgiCAb; recombinant, obtained in-house

H. pylori ATCC 43504 = test system: T11, H. pylori ATCC 43504; test: microbe, parasite or virus in culture; set-up: species or system Helicobacter pylori ATCC 43504; MIC by broth microdilution, alamarBlue and CFU count; MBC by CFU count; conditions: Helicobacter pylori, ATCC43504
T11 construct: ATCC 43504
Description: H. pylori ATCC 43504 was cultured on a Columbia Agar base (Becton Dickinson and Company, Franklin Lakes, NJ, USA) supplemented with 10% horse serum (Merck, St. Louis, MO, USA) and 0.25% yeast extract (Oxoid Ltd., Hampshire, UK), incubated at 37 °C for 72 h in a microaerophilic atmosphere (CampyGen, Thermo Fisher Scientific, Milan, Italy). Colonies were collected and transferred into 10 mL of Brain Heart Infusion broth (BHI, Oxoid Ltd., Hampshire, UK) supplemented with 5% (v/v) of fetal bovine serum (FBS, Merck, Milan, Italy) and incubated overnight at 37 °C, at 125 rpm under microaerophilic conditions. After 18 h of incubation, the broth culture was diluted to obtain a bacterial suspension of 10^6 CFU/mL. MICs were determined by three different assays: the broth micro-dilution method, the alamarBlue assay, and the CFU count. […] This bacterium was selected based on the inhibitory potency evidenced by the two series of azobenzenesulfonamides against the HpCAs.

EcoβCA [6] = molecular target: T6, EcoβCA; test: biochemical; conditions: read-out: Bacterial Isoforms / Eco βCA
Description: (§1) An Applied Photophysics stopped-flow instrument was used to evaluate the ability of the test compounds to inhibit CA-catalyzed CO2 hydration. […] The CO2 concentrations ranged from 1.7 to 17 mM for the determination of the kinetic parameters and inhibition constants. Enzyme concentrations spanned from 5 to 12 nM. Stock solutions of the inhibitor (0.1 mM) were prepared in distilled–deionized water, and dilutions up to 0.01 nM were prepared with the assay buffer. Inhibitor and enzyme solutions were preincubated for 15 min at r.t. for the formation of the E–I complex. The inhibition constants were obtained by non-linear least-squares methods using PRISM 3 and the Cheng–Prusoff equation and represent the mean from at least three different determinations. Apart from human CAs I and II purchased from Merck, all the bacterial CAs were recombinant and obtained in-house. Compounds 4a–j and 5a–j were tested on a large panel of human and bacterial isoenzymes belonging to different CA families, evaluating their inhibitory activity through the CO2 hydration activity assay by means of the stopped-flow technique, and the inhibitory constants (KIs) are reported in Table 1 and Table 2, respectively. In particular, we tested the hypoxic tumor-associated hCAs IX and XII, and bacterial isoforms involved in several infectious diseases, such as those caused by H. pylori (HpαCA and HpβCA), Porphyromonas gingivalis (PgiβCA and PgiγCA), Escherichia coli (EcoβCA), Pseudomonas aeruginosa (PsCA3, belonging to the β-class), Mammaliicoccus (Staphylococcus) sciuri (MscCA, belonging to the β-class), and Streptococcus mutans (SmuCA, belonging to the β-class). The inhibition of human physiologically relevant isoforms I and II was also investigated in order to assess the compounds’ selectivity. Our main aim was to rationalize the structural requirements of sulfonamide-containing compounds useful for targeting HpCAs, in order to gain a larger knowledge for further optimization studies focusing on isoform selectivity. In fact, although the tested human and bacterial isoforms present a low degree of sequence similarity, they catalyze the same reaction and contain the catalytically active zinc ion in the active site. Thus, a comparison of the data obtained from different members of this large superfamily has a high relevance in the field. By observing Table 1 and Table 2, interesting structure–activity relationship (SAR) considerations can be inferred.

PsCA3 [7] = molecular target: T9, PsCA3; test: biochemical; conditions: read-out: Bacterial Isoforms / Ps CA3
Description: as §1

hCA I [8] = molecular target: T1, hCA I; test: biochemical; conditions: read-out: Human Isoforms / hCA I
Description: as §1

hCA IX [9] = molecular target: T3, hCA IX; test: biochemical; conditions: read-out: Human Isoforms / hCA IX
Description: as §1

hCA XII [10] = molecular target: T7, hCA XII; test: biochemical; conditions: read-out: Human Isoforms / hCA XII
Description: as §1

[11] = read-out: KI (nM) * / Bacterial Isoforms / Hp αCA

T7 sequence (O43570 30-289 limits assumed): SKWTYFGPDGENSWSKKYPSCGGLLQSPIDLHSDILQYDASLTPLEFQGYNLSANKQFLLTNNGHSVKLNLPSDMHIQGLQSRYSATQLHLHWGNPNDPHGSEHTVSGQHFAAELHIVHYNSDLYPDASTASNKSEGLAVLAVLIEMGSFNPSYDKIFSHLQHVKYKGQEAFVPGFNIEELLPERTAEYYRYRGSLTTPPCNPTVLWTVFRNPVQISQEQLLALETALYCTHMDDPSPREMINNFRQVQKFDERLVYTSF
T6 sequence (P61517 whole entry, canonical isoform): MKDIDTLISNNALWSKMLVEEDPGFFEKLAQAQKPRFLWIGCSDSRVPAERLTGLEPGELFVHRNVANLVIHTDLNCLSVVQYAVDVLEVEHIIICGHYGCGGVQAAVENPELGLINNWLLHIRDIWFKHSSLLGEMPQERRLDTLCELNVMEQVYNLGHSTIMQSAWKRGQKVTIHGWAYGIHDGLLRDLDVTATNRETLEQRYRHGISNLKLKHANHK
T1 sequence (P00915 2-261): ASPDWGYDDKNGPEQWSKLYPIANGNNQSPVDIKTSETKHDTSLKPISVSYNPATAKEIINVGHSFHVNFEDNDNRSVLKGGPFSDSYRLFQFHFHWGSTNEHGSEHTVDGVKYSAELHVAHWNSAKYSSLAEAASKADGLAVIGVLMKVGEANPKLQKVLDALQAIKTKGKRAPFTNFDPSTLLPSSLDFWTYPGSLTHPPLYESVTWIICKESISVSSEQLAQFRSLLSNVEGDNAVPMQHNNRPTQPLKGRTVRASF

Structure (SMILES)	Ki (hCA I [1]) [nM]	Ki (hCA II) [nM]	Ki (hCA IX [2]) [nM]	Ki (PgiγCA) [nM]	Ki (HpαCA; [11]) [nM]	Ki (EcoβCA [3]) [nM]	Ki (hCA XII [4]) [nM]	Ki (HpβCA) [nM]	Ki (PsCA3 [5]) [nM]	Ki (PgiβCA) [nM]	MBC (H. pylori ATCC 43504) [µg/mL]	MIC (H. pylori ATCC 43504) [µg/mL]	Ki (HpαCA; read-out: KI (nM) / Bacterial Isoforms / Hp αCA) [nM]	Ki (EcoβCA [6]) [nM]	Ki (PsCA3 [7]) [nM]	Ki (hCA I [8]) [nM]	Ki (hCA IX [9]) [nM]	Ki (hCA XII [10]) [nM]
COc1ccc(O)c(/N=N/c2ccc(S(N)(=O)=O)cc2)c1 [4a, (E)-4-((2-hydroxy-5-methoxyphenyl)diazenyl)benzenesulfonamide]	45	24.1	201	3440	65.8	400	9.5	74.1	228	803	32 (≈ 104 µM)	8 (≈ 26 µM)						
COc1cc(/N=N/c2ccc(S(N)(=O)=O)cc2)ccc1O [4b, (E)-4-((4-hydroxy-3-methoxyphenyl)diazenyl)benzenesulfonamide]	34.8	3.3	831	837	120	95.8	21.8	49.7	702	1920	32 (≈ 104 µM)	32 (≈ 104 µM)						
COc1cc(O)ccc1/N=N/c1ccc(S(N)(=O)=O)cc1 [4c, (E)-4-((4-hydroxy-2-methoxyphenyl)diazenyl)benzenesulfonamide]	84.9	5.4	545	2000	70.9	96.3	34.7	17.1	221	3630	16 (≈ 52.1 µM)	8 (≈ 26 µM)						
NS(=O)(=O)c1ccc(/N=N/c2ccc(O)c(C(F)(F)F)c2)cc1 [4d, (E)-4-((4-hydroxy-3-(trifluoromethyl)phenyl)diazenyl)benzenesulfonamide]	20.1	4.8	182	94.7	39	738	40.2	19.4	222	3170	128 (≈ 371 µM)	64 (≈ 185 µM)						
NS(=O)(=O)c1ccc(/N=N/c2ccc(O)cc2C(F)(F)F)cc1 [4e, (E)-4-((4-hydroxy-2-(trifluoromethyl)phenyl)diazenyl)benzenesulfonamide]	5.4	4.2	191	347	89.2	95.3	54.1	68.8	495	899	16 (≈ 46.3 µM)	8 (≈ 23.2 µM)						
Cc1cc(/N=N/c2ccc(S(N)(=O)=O)cc2)c(C)cc1O [4f, (E)-4-((4-hydroxy-2,5-dimethylphenyl)diazenyl)benzenesulfonamide]	5.7	1.9	97.1	472	69.4	867	56.7	70.6	191	3760	32 (≈ 105 µM)	32 (≈ 105 µM)						
Cc1cc(O)cc(C)c1/N=N/c1ccc(S(N)(=O)=O)cc1 [4g, (E)-4-((4-hydroxy-2,6-dimethylphenyl)diazenyl)benzenesulfonamide]	4.9	3.7	171	939	142	550	63.9	74.3	879	3670	32 (≈ 105 µM)	16 (≈ 52.4 µM)						
Cc1ccc(O)c(/N=N/c2ccc(S(N)(=O)=O)cc2)c1 [4h, (E)-4-((2-hydroxy-5-methylphenyl)diazenyl)benzenesulfonamide]	68.4	6.6	184	772	130	360	9.6	127	980	3850	64 (≈ 220 µM)	32 (≈ 110 µM)						
Cc1cc(/N=N/c2ccc(S(N)(=O)=O)cc2)ccc1O [4i, (E)-4-((4-hydroxy-3-methylphenyl)diazenyl)benzenesulfonamide]	4.4	3.4	181	6330	140	2110	7.5	119	114	2070	64 (≈ 220 µM)	32 (≈ 110 µM)						
CS(=O)(=O)Nc1ccc(N=Nc2ccccc2)cc1 [5i]											32 (≈ 116 µM)	16 (≈ 58.1 µM)	89.8	6950	9280	5990	599	2240
CC1(C)S[C@@H]2[C@H](NC(=O)[C@H](N)c3ccc(O)cc3)C(=O)N2[C@H]1C(=O)O [Amoxicillin]											0.064 (≈ 0.175 µM)	0.064 (≈ 0.175 µM)						
